The results in this text go back to US9340585B2, “Competence stimulating peptide” (INSTITUT NATIONAL DE LA RECHERCHE AGRONOMIQUE, priority 2009, dated 2016).

In experiment [1] the test system is S. thermophilus strain CNRZ1066. As to the kind of experiment: Transformation assay: peptide added to culture of strain CNRZ1066. The class given is cell-based. On the procedure: (§1) S. thermophilus cells are grown overnight at 42° C. in CDM. The culture is then diluted in CDM at an OD600 0.05. Sixty minutes after dilution, the competence stimulating peptide (CSP), which is the mature peptide comprising SEQ ID No1 or fragments or derivatives of SEQ ID No1 that allow to induce competence in S. thermophilus, is added to the culture at a final concentration of 1 μM. Ten minutes later, 100 μl of the culture containing the CSP is mixed with 1 μg of DNA and incubated for 2 hours at 28° C. when mixed with a thermosensitive replicative plasmid DNA or 1 hour at 42° C. when mixed with chromosomal DNA or PCR fragments, before being serially diluted and spread on M17lac plates with the appropriate antibiotic.
(§2) To test the biological activity of those fragments, peptides were added to a culture of a strain deleted for the papR gene at a final concentration of 1 μM, 1 hour after the dilution of the culture at an OD600 of 0.05 in a chemical defined medium (CDM). Transformation assays were performed with 100 μl of cells with 1 μg of plasmid and or chromosomal DNA.
(§3) S. thermophilus strain LMG18311 is naturally poorly competent and strain CNRZ1066 is naturally not competent. However, complementation of both strains with a plasmid that overexpresses the papR gene makes them competent. […]

Experiment [2] concerns S. thermophilus strain LMG18311. As to the kind of experiment: Transformation assay: peptide added to culture of strain LMG18311. Format: cell-based. The procedure:
as §1, §2, §3

Experiment [3] concerns strain deleted for the papR gene. As to the kind of experiment: Transformation assay: peptide added to culture of papR-deleted strain in CDM. Format: cell-based, S. thermophilus. To be noted: for Competence: peptide stimulates competence, YES/NO. On the procedure:
as §1
The inventors tested the activity of fragments of SEQ ID No1 using a strain deleted for the papR gene using the protocol described in part 8. The inventors thus synthesized different fragments of SEQ ID No1 in order to test their biological activity. Fragments were synthesized as below:
as §2

Setting [4] is: Chromosomal transforming DNA 1 μg, peptide 1 μM, fragment comparison.
Setting [5] is: Chromosomal transforming DNA, alkylation comparison.

Where no end group is shown, it is not given here. The star is where a group is joined. Cam = NC(=O)C*

As to “IAILPYFAGCL (listed as Streptococcus thermophilus) [SEQ ID N^o7]”, the “competence after addition of the peptide to the culture” value is recorded as “renders them competent” in experiment [1] (CNRZ1066, result in words) and “renders them competent” in experiment [2] (LMG18311, result in words). The “numbers of transformants obtained with 100 μl of competent cells” value (from here on “numbers of transformants obtained”) in experiment [1] (CNRZ1066, Chromosomal transforming DNA) was found to be 0; in experiment [2] (LMG18311, Chromosomal transforming DNA) it was 477; in experiment [3] (setting [4]), 24; in experiment [3] (setting [5]), 35. For the same substance, the figures for the Competence entry in experiment [3] (listed as 7) and in experiment [3] (listed as SEQ ID No7) were “YES” and “active competence peptide”, respectively.
Regarding “PYFAGCL (Fragment of SEQ ID N07) [SEQ ID N^o13]”, the “numbers of transformants obtained” value stood at 0 in experiment [3] (setting [4]) and 0 in experiment [3] (Plasmid transforming DNA 1 μg, peptide 1 μM, fragment comparison).
In the case of “LPYFAGCL (Fragment of SEQ ID N07) [SEQ ID N^o12]”, the “numbers of transformants obtained” value in experiment [3] (setting [4]) is on record as 41.
“IAILPYFAGC*L (IAILPYFAGC(Cam)L; listed as Streptococcus thermophilus) [Alkylated SEQ ID N^o7]”: the “numbers of transformants obtained” value in experiment [3] (setting [5]) amounted to 0; in experiment [3] (Plasmid transforming DNA, alkylation comparison), 2.
